Values of other authors, collected in patent publication US8198478B2 (Ajinomoto Co., Inc., priority 2007, dated 2012).

Conditions: literature value (Kagaku Binran, 1993)

N[C@@H](CCC(=O)O)C(=O)O [glutamic acid]
hydrogen ion dissociation constant pk1: 2.19 | hydrogen ion dissociation constant pk2: 4.25 | hydrogen ion dissociation constant pk3: 9.67
